For the test, the system named is CEM cells HIV-1 protection, formazan growth assay. As to the kind of experiment: NCI AIDS Antiviral Assay. As to conditions: for IC50: measured here: growth of uninfected CEM cells. The method in brief: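 Category rules: moderately active means at least 50% protection on retest, and confirmed active means 100% protection reproducibly. The underlying data came from a formazan growth assay in HIV-1-infected CEM cells.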

We go through 29 compounds from PubChem BioAssay AID179 (DTP/NCI, 2004).

Activity calls are given as the source filed them.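 How the source made its calls: active means compounds giving half or more protection of infected cells from virus-caused growth loss, again on retest; inactive means the rest.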

On to `O=C1CN(CCN2CCCCC2)CC(=O)N2Cc3ccccc3CN12`, for which the EC50 was more than 200 µM and the IC50 is more than 200 µM.

Turning to `Cc1cc(N(CCC#N)S(=O)(=O)c2ccccc2)ccc1C=Nc1ccc(C(=O)O)cc1`, the EC50 was more than 151 µM and the IC50 came out at 85.1 µM. On the same counts, the results for `CCC1Sc2cc(OC)cc(NC=O)c2NC1=O` (stereo not drawn) are 174 µM and more than 200 µM. On to `CCC1(C)NN=c2s/c(=C/c3ccc(OC)cc3)c(=O)n2N1` (stereo not drawn), for which the result was inactive. In the case of `CC(NC(=O)OC(C)(C)C)C(=O)NC(Cc1ccccc1)C(=O)NCC(=O)Oc1c(Cl)c(Cl)c(Cl)c(Cl)c1Cl` (stereo not drawn), the EC50 was more than 200 µM and the IC50 is 4.27 µM. `Cc1cc(NS(=O)(=O)c2ccc(Nc3c4ccccc4nc4c(C(=O)NCCN(C)C)ccc(Cl)c34)cc2)no1`: the outcome was inactive. As to `N#CC1(C#N)C2C=CC(C3CCC=C32)C1(C#N)C#N` (stereo not drawn), the EC50 was more than 200 µM and the IC50 was 7.76 µM. Take `COc1ccc(N2C(=O)C3c4[nH]c5ccc(OC)cc5c4C4CCC(C(C)C)CC4C3C2=O)cc1` (stereo not drawn): the EC50 was more than 50.1 µM and the IC50 was more than 50.1 µM. In the case of `N#CCCN(c1ccc(/C=C2\N=C(c3ccc(Cl)cc3)OC2=O)cc1)S(=O)(=O)c1ccccc1`, the EC50 was more than 72.4 µM and the IC50 is more than 72.4 µM. For the compound `CN(C)CCCNC(=O)c1cc(NC(=O)c2cc(NC(=O)c3cc(NC(=O)CCCn4ccc(CO)c4CO)cn3C)cn2C)cn1C`, the EC50 is more than 20 µM and the IC50 was 0.38 µM.

Take `CN(C)CCN1CCC(Cc2ccccc2)CC1`: the EC50 is more than 200 µM and the concentration for half-maximal inhibition (IC50) came out at 72.4 µM. On the same counts, the results for `Nc1ncnc2c1ncn2CC(=O)NCCCO` are more than 200 µM and more than 200 µM.

Consider `C[PH+](C)CC[PH+](C)C.[C-]#[O+].[C-]#[O+].[C-]#[O+].[Fe]`, for which the EC50 is more than 200 µM and the IC50 was more than 200 µM. For the compound `Cc1nc(C)c(N2CCN(C#N)CC2)c(=O)[nH]1`, the EC50 was more than 200 µM and the IC50 was more than 200 µM. As to `O=C1c2cccc3c([N+](=O)[O-])ccc(c23)C(=O)N1NCCO`, the result was inactive.

Regarding `O=C(O)CCCCCCCCCCC(=O)O`, the EC50 was more than 148 µM and the IC50 is more than 148 µM. As for `CCCCc1ccc2[n+](c1)C(C(=O)OCC)=PC2` (stereo not drawn), the EC50 is more than 178 µM and the IC50 was found to be 145 µM.

As to `CN1C(=O)c2ccccc2C(O)(c2ccccc2)C1(O)c1ccccc1` (stereo not drawn), the EC50 was more than 200 µM and the IC50 is 64.6 µM. For `CCCCCCCC(=O)OC[C@H](C[As](=O)(O)O)OC(=O)CCCCCCC`, the EC50 was more than 200 µM and the IC50 stood at 7.76 µM. On the same counts, the results for `O=C1c2c(/C=C/c3ccc(Cl)c(Cl)c3)nc3ccccc3c2C(=O)N1CCN1CCCCC1` are more than 7.59 µM and more than 7.59 µM.

As for `CCN(CC)C1Oc2cc3c(cc2C(c2ccc(OC)cc2)C1C)OCO3` (stereo not drawn), the EC50 is more than 200 µM and the IC50 turned out to be 24 µM. With `OC1CCCC2CCC[N-]C12.OC1CCCC2CCC[N-]C12.[Mn+2]` (stereo not drawn), the outcome was inactive. For `O=C1OC(=O)c2c1nc1ccccc1c2-c1ccccc1`, the result was inactive.

As to `Oc1[nH]c2ccccc2c1N=NC(=S)Nc1cccc(Cl)c1`, the EC50 is more than 200 µM and the IC50 amounted to 4.57 µM. As to `CC(Cc1ccccc1)NN(CS(=O)(=O)O)CS(=O)(=O)O` (stereo not drawn), the result was inactive. As for `Cc1cccc([P+](Cc2ccccc2)(c2cccc(C)c2)c2cccc(C)c2)c1`, the EC50 is more than 200 µM and the IC50 came out at 0.589 µM. `c1ccc([P+](CCC[P+](c2ccccc2)(c2ccccc2)c2ccccc2)(c2ccccc2)c2ccccc2)cc1`: the EC50 is more than 200 µM, the result was inactive and the IC50 is 135 µM. Regarding `O=C1C2C3C=CC(O3)C2C(=O)N1/N=C\C(O)C(O)C(O)C(O)CO` (stereo not drawn), the EC50 is more than 129 µM and the IC50 is more than 129 µM. For the compound `O=C1CC(c2ccccc2)=NO1`, the EC50 was more than 200 µM and the IC50 is more than 200 µM.

One may read the EC50 as the concentration at which the effect is half-maximal. One may read the IC50 as the concentration at which inhibition is half-maximal. Higher therefore signals weaker potency in that assay.
